The subject of test [1] is DENV-2/Rega lab strain. Description: AG129 mouse viremia model, low viral input (10^2 PFU), viral load kinetics, pre-exposure prophylaxis. Format: in vivo, AG129 mice. The note with it: for median serum viral load over all 11 days: LOD=2.59 log10 copies/mL. On the procedure:
In this experiment, lower viral inputs were used (10^2 PFU), compared with the standard viremia experiments with a high viral input (10^6 PFU). 10^2 PFU was selected as it was the lowest viral load leading to a Dengue infection in the mouse model. Using a lower viral input still results in 100% infection of the mice, but the peak viral load is postponed with 1 to 2 days, which more closely mimics a natural human infection (Clapham et al., 2014 and Sim et al., 2015). The mice were treated during 6 consecutive days.
Animals were infected i.p. with 10^2 PFU DENV-2/Rega lab strain and treated for six consecutive days twice daily with compound (a) by oral gavage (FIG. 5).
The mice were divided in four treatment groups (n=16/group) representing the following treatment regimens: • (i) Vehicle 80%/20% PEG400/H2O, • (ii) compound (a): 10 mg/kg/dose b.i.d. p.o. • (iii) compound (a): 1 mg/kg/dose b.i.d. p.o. • (iv) compound (a): 0.1 mg/kg/dose b.i.d. p.o.
Daily blood samples were collected to follow the viral load over time. Blood collection, for viral RNA load detection, was performed in two alternating sub-groups of mice. Each sub-group comprised half of the mice (n/2=8) from each of the treatment groups (i) to (iv). Blood was collected from a first sub-group at day 1, 3, 5 and 8 p.i. and from a second sub-group at day 2, 4, 6 and 11 p.i. At day 8 p.i., mice of the first sub-group were sacrificed while those of the second sub-group were sacrificed at day 11 p.i. […]
Alternating sub-groups were used to enable daily blood collections. Blood for viral RNA load detection was collected from mice in two alternating sub-groups. Each sub-group comprised half of the mice (n/2=8) from each of the treatment groups (i-vi). Blood was collected from a first sub-group at days 1, 3, 5 and 8 p.i. and from a second sub-group at days 2, 4, 6 and 11 p.i. Blood collection was always performed just before the next administration of the compound. At day 8 p.i., half of the mice in each treatment group (n=8/group) were sacrificed. The remaining mice in each treatment group (n=8/group) were sacrificed at day 11 p.i (FIG. 16 Y).

Test [2] has as its system DENV 1/45AZ5. Description: Antiviral activity against DENV 1/45AZ5 in non-human primates, prophylactic setting. It is filed as in vivo, rhesus monkeys (Macaca mulatta). As to conditions: 6 mg/kg q.d. oral, day -3 to day 10, follow-up to day 28 post infection. As for the experimental part: The antiviral activity of compound (a) DENV in a prophylactic setting was assessed in rhesus monkeys (Macaca mulatta) infected with strain DENV 1/45AZ5. Oral dosing of compound (a) (6 mg/kg) was started 3 days before infection with DENV (day −3) and continued with daily dosing until 10 days post infection. On day 0, the animals were intradermally inoculated with 0.5 mL of DENV 1/45AZ5 (1.2×105 plaque-forming units [PFU/mL]). Animals were followed up until day 28 post infection (FIG. 13 X).
The rhesus monkeys were divided in 2 groups representing the following treatment regimens: • (i) Vehicle 100% PEG400 (n=6) • (ii) Group 1: 6 mg/kg/dose, q.d. (n=6),

The test system of test [3] is DENV-2/Rega lab strain. As to the kind of experiment: AG129 mouse viremia model, high viral input (10^6 PFU), pre-exposure prophylaxis. Format: in vivo, AG129 mice. As to conditions: day 3 p.i.; for viral load reduction in serum / median viral load reduction in serum: 10^6 PFU, vs vehicle. From the text: The AG129 mouse model is a well-established model to study the antiviral effect of compounds against DENV in vivo (Zompi and Harris, 2012). These 129/Sv mice are deficient for both IFN-α/β and IFN-γ receptors, enabling peripheral viral replication upon intravenous (i.v.) or subcutaneous (s.c.) infection with DENV (Johnson and Roehrig, 1999). […]
Total RNA from serum was extracted using the NucleoSpin RNA virus kit according to the manufacturer's protocol (Macherey-Nagel, Düren, Germany). The viral RNA load was determined by one-step TaqMan RT-qPCR (master mix from Eurogentec, Seraing, Belgium). […]
In a similar setup as for the b.i.d. dosing studies, the in vivo efficacy was studied in the AG129 standard viremia model against DENV-2 with high viral inoculum and with compound (a) q.d. administration. Animals were i.p. infected with 10^6 PFU DENV-2/Rega lab strain in a volume of 200 μL. Animals were treated by administering compound (a) by oral gavage with a first administration at one hour prior to infection. The treatment continued for three consecutive days with one administration of compound (a) every 24 hours (once a day or q.d.). At day 3 post infection (p.i.), the mice were euthanized, and blood was collected (FIG. 3). The viral RNA load was determined as outlined in example 1.
The mice were divided in 5 groups (n=8/group) representing the following treatment regimens: • (i) Vehicle 80%/20% PEG400/H2O, • (ii) reference compound (2′CMC, 50 mg/kg per dose, b.i.d., s.c.), • (iii) compound (a): 0.3 mg/kg/dose q.d. • (iv) compound (a): 3 mg/kg/dose q.d. • (v) compound (a): 30 mg/kg/dose q.d. […]
The mice were divided in several groups (n=8/group for the viremia study and n=10/group for the survival study) representing the following treatment regimens: • (i) vehicle, 80%/20% PEG400/H2O • (ii) compound (b): 30 mg/kg/dose b.i.d. • (iii) compound (b): 10 mg/kg/dose b.i.d. • (iv) compound (b): 3 mg/kg/dose b.i.d. • (v) compound (b): 1 mg/kg/dose b.i.d.

Results on two compounds are retold here after US12702657B2, “Treatment and prevention of dengue disease” (Janssen Pharmaceuticals, Inc., priority 2019, dated 2026).

Structures are written as SMILES.

As for `COc1cc(NC(C(=O)c2c[nH]c3ccc(OC(F)(F)F)cc23)c2ccc(Cl)cc2OC)cc(S(C)(=O)=O)c1` (stereo not shown) [compound (a)], in test [1] (0.1 mg/kg/dose b.i.d. p.o., 6 days, 10^2 PFU), the “delay of peak viral load versus vehicle” value is ~ 1 day. Moreover, the “viral load reduction compared with vehicle” value in test [1] (0.1 mg/kg/dose b.i.d. p.o., day 5, 10^2 PFU) is recorded as 0.50 log10 copies/mL. In addition, the “viral load over time” value in test [1] (0.1 mg/kg/dose q.d. p.o., 10^2 PFU) is listed as “comparable to the vehicle-treated viral load curve”. Besides, the “viral load reduction compared to vehicle-treated mice” value in test [1] (0.3 mg/kg/dose q.d. p.o., day 5, 10^2 PFU) is 1.6 log10 copies/mL. The “course of viral load after day 5” value in test [1] (0.3 mg/kg/dose q.d. p.o., up to day 11, 10^2 PFU) is “no further decline in viral load up to day 11”. The “median serum viral load over all 11 days” value in test [1] (0.6 mg/kg/dose q.d. p.o., 6 days, 10^2 PFU) is recorded as “undetectable levels”; in test [1] (1 mg/kg/dose q.d. p.o., 6 days, 10^2 PFU, 1 viral rebound at day 8), “undetectable levels”; in test [1] (3 mg/kg/dose q.d. p.o., 6 days, 10^2 PFU) it was “undetectable levels”; in test [1] (10 mg/kg/dose q.d. p.o., 6 days, 10^2 PFU), “undetectable levels”; in test [1] (30 mg/kg/dose q.d. p.o., 6 days, 10^2 PFU) it was “undetectable levels”. The “viral load in the mice over all the days” value in test [1] (1 mg/kg/dose b.i.d. p.o., 6 days, 10^2 PFU) is recorded as “undetectable levels”; in test [1] (10 mg/kg/dose b.i.d. p.o., 6 days, 10^2 PFU), “undetectable levels”. The “median viral load at viral rebound” value in test [1] (1 mg/kg/dose q.d. p.o., day 8, 10^2 PFU) stood at 3.78 log10 copies/mL. Also, the “DENV RNA during the complete study period” value in test [2] is recorded as “undetectable”. The “viral load reduction in serum” value in test [3] (0.1 mg/kg/dose b.i.d. p.o.) is on record as 0.47 log10 copies/mL; in test [3] (30 mg/kg/dose b.i.d. p.o.), 4.4 log10 copies/mL. The “median viral load reduction in serum” value in test [3] (0.3 mg/kg/dose q.d. p.o.) came out at 0.7 log10 copies/mL; in test [3] (3 mg/kg/dose q.d. p.o.) it was 3.1 log10 copies/mL; in test [3] (30 mg/kg/dose q.d. p.o.), 4.5 log10 copies/mL. Also, the “viral load reduction in serum compared with the vehicle-treated group, significance” value in test [3] (all doses except 0.1 (0.3, 1, 3, 10, 30 mg/kg/dose b.i.d.), p<0.001) was “significant viral load reduction”.
With `COc1cc(NC(C(=O)N2CCc3ccc(OC(F)(F)F)cc32)c2ccc(Cl)cc2)cc(OCCCC(=O)O)c1` (stereo not shown) [compound (b)], the “reduction of viral RNA levels at peak viremia” value in test [1] (compound (b) 0.3 mg/kg b.i.d. p.o., 10^2 PFU) is 0.8 log10; in test [1] (compound (b) 1 mg/kg b.i.d. p.o., 10^2 PFU), 1.8 log10. Moreover, the “viral RNA levels in serum” value in test [1] (compound (b) 3 mg/kg/dose b.i.d. p.o., 6 days, 10^2 PFU) is recorded as “undetectable levels”; in test [1] (compound (b) 10 mg/kg/dose b.i.d. p.o., 6 days, 10^2 PFU), “undetectable levels”; in test [1] (compound (b) 30 mg/kg/dose b.i.d. p.o., 6 days, 10^2 PFU) it was “undetectable levels”. The “viral load reduction in serum” value in test [3] (compound (b) 1 mg/kg per dose b.i.d. p.o.) worked out at 0.70 log10 copies/mL; in test [3] (compound (b) 30 mg/kg per dose b.i.d. p.o.) it was 3.8 log10 copies/mL. Further, the “viral load reduction compared with the vehicle-treated group, significance” value in test [3] (compound (b), all four doses (1, 3, 10, 30 mg/kg per dose b.i.d.), p<0.05) is reported as “significant viral load reduction”.
